Among the test systems are SK-OV-3 ovarian; TK-10 renal; MDA-MB-435; SF-539 CNS; NCI-H460 lung; COLO 205 colon; SN12C renal; SNB-75 CNS; OVCAR-8 ovarian; ACHN renal.
Holding throughout (assay): NCI tumour cell line growth inhibition, 48 h

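Cells were grown in 96-well plates and exposed to each compound for 48 hours at five concentrations; endpoints were interpolated linearly between bracketing concentrations, or set to the highest concentration if not reached. TGI marks complete inhibition of growth.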

Take `COc1ccc(-c2nc(-c3cnccn3)n(C3OC(CO)C(O)C(O)C3O)n2)cc1` (stereo not given): the TGI in the assay on SK-OV-3 ovarian, with TK-10 renal, with MDA-MB-435, in the assay with SF-539 CNS, in the assay with NCI-H460 lung and with COLO 205 colon was > 100 µM each time. Further, the TGI in the assay on SN12C renal, in the assay on SNB-75 CNS and in the assay with OVCAR-8 ovarian was > 100 µM each time.
Consider `CCOC(=O)/C(C#N)=C/N(CC)/N=C/c1ccccc1`, for which the TGI in the assay with SK-OV-3 ovarian, in the assay with TK-10 renal, in the assay with MDA-MB-435, with SF-539 CNS, with NCI-H460 lung and with COLO 205 colon was > 100 µM throughout. Moreover, the TGI in the assay with SN12C renal, in the assay on SNB-75 CNS, in the assay with OVCAR-8 ovarian and in the assay with ACHN renal was > 100 µM throughout.
For the molecule `O=C(/C=C/c1ccco1)c1cccc(C(=O)/C=C/c2ccco2)n1`, the TGI in the assay with SK-OV-3 ovarian was > 100 µM; in the assay with TK-10 renal, > 100 µM; with MDA-MB-435, > 100 µM; in the assay on SF-539 CNS, 17.5 µM; in the assay with NCI-H460 lung, > 100 µM; in the assay with COLO 205 colon, > 67.4 µM. Further, the TGI with SN12C renal is 32 µM; in the assay with SNB-75 CNS it was > 100 µM; in the assay on OVCAR-8 ovarian, 8.83 µM; in the assay on ACHN renal, 72.7 µM.
In the case of `C=C1CC(Cn2cc(Br)c(=O)[nH]c2=O)(c2ccc(-c3ccccc3)cc2)OC1=O` (stereo not given), the TGI came to 15.9 µM with SK-OV-3 ovarian; 0.842 µM with TK-10 renal; 2.36 µM in the assay with MDA-MB-435; 3.92 µM in the assay with SF-539 CNS; 19.7 µM with NCI-H460 lung; 2.23 µM with COLO 205 colon. The TGI in the assay with SN12C renal worked out at 4.67 µM; in the assay on SNB-75 CNS, 17.6 µM; with OVCAR-8 ovarian, 4.29 µM; in the assay with ACHN renal, 3.24 µM.
As to `C=CCOC(=O)CCCCCCCCCCCCCCCOC(=O)C1=C(CCC[C@@H](C)O[Si](C)(C)C(C)(C)C)NC(=O)N2[C@H](CC3(CC/C=C\[C@H](CC)O[Si](C(C)C)(C(C)C)C(C)C)OCCO3)CC[C@H]12`, the TGI in the assay on SK-OV-3 ovarian, in the assay with TK-10 renal, in the assay with MDA-MB-435, with SF-539 CNS, in the assay with NCI-H460 lung and in the assay with COLO 205 colon was > 100 µM throughout. For the same molecule, the TGI with SN12C renal, in the assay on SNB-75 CNS and with ACHN renal was > 100 µM throughout.
For `CCCCCCOP(=O)(OCCCCCC)OC(C(=O)OC)C(F)(F)F` (stereo not given), the TGI with SK-OV-3 ovarian, in the assay with TK-10 renal, with MDA-MB-435, with SF-539 CNS, in the assay with COLO 205 colon and in the assay on SN12C renal was > 100 µM throughout. Further, the TGI with SNB-75 CNS, in the assay with OVCAR-8 ovarian and with ACHN renal was > 100 µM in each case.
`CC(=O)O[C@H]1C(=O)N(c2cc3c4ccccc4ccc3c3ccccc23)[C@@H]1c1ccccc1`: the TGI in the assay on SK-OV-3 ovarian is 35.8 µM; in the assay with TK-10 renal it was 47.1 µM; in the assay on MDA-MB-435, 5.68 µM; in the assay with SF-539 CNS it was 13.2 µM; in the assay on NCI-H460 lung, > 100 µM; with COLO 205 colon, 18.1 µM. The TGI was 26.7 µM in the assay with SN12C renal, 7.2 µM in the assay on SNB-75 CNS, 32.1 µM in the assay with OVCAR-8 ovarian and 89.2 µM in the assay with ACHN renal.
As to `O=CNNC(=O)Nc1ccc(Cl)cc1`, the TGI with SK-OV-3 ovarian, in the assay with TK-10 renal, in the assay with MDA-MB-435, in the assay on SF-539 CNS, in the assay with COLO 205 colon and with SN12C renal was > 100 µM throughout. Also, the TGI with SNB-75 CNS, with OVCAR-8 ovarian and with ACHN renal was > 100 µM each time.
Regarding `O=C(c1ccco1)C1CC(c2ccc3ccccc3c2O)=NN1c1ccc([N+](=O)[O-])cc1[N+](=O)[O-]` (stereo not given), the TGI in the assay on SK-OV-3 ovarian is 96.9 µM; in the assay with TK-10 renal it was > 100 µM; in the assay with MDA-MB-435, > 100 µM; in the assay on SF-539 CNS, > 100 µM; in the assay with NCI-H460 lung, 33.9 µM; in the assay with COLO 205 colon, 32 µM. The TGI in the assay with SN12C renal was > 100 µM; in the assay with SNB-75 CNS it was 89.1 µM; with OVCAR-8 ovarian, > 100 µM; with ACHN renal it was > 100 µM.
Turning to `O=C1CSc2nnc(CCCCCCCCc3nnc4n3NC(=O)CS4)n2N1`, the TGI with SK-OV-3 ovarian, with MDA-MB-435, in the assay on SF-539 CNS, in the assay with NCI-H460 lung, in the assay on COLO 205 colon and in the assay on SN12C renal was > 100 µM throughout. For the same molecule, the TGI with SNB-75 CNS, in the assay on OVCAR-8 ovarian and in the assay with ACHN renal was > 100 µM throughout.
Take `CC(C)(C)c1c(C(C)(C)C)c(=O)c1=O`: the TGI with SK-OV-3 ovarian, in the assay on TK-10 renal, in the assay with MDA-MB-435, with SF-539 CNS, in the assay with NCI-H460 lung and in the assay on COLO 205 colon was > 100 µM each time. Besides, the TGI with SN12C renal, in the assay with SNB-75 CNS, with OVCAR-8 ovarian and in the assay on ACHN renal was > 100 µM throughout.
On to `O=S1(=O)CCN(c2ccccc2CC(c2c[nH]c3ccccc23)c2c[nH]c3ccccc23)CC1`, for which the TGI with SK-OV-3 ovarian was > 79 µM; in the assay with TK-10 renal, 19.8 µM; with MDA-MB-435, > 31.7 µM; in the assay on SF-539 CNS it was 32 µM; in the assay with NCI-H460 lung it was 13 µM; in the assay with COLO 205 colon it was 8.23 µM. Moreover, the TGI was 24.1 µM in the assay with SN12C renal, 23.6 µM in the assay on SNB-75 CNS, 39.7 µM in the assay on OVCAR-8 ovarian and > 91.7 µM in the assay on ACHN renal.
As for `c1ccc([P+](c2ccccc2)(c2ccccc2)c2ccc([P+](c3ccccc3)(c3ccccc3)c3ccccc3)cc2)cc1`, the TGI is > 100 µM with SK-OV-3 ovarian; > 100 µM in the assay on TK-10 renal; > 100 µM in the assay with MDA-MB-435; 81.5 µM with SF-539 CNS; > 100 µM in the assay on NCI-H460 lung; 50.8 µM with COLO 205 colon. Also, the TGI in the assay on SN12C renal, in the assay on SNB-75 CNS, in the assay on OVCAR-8 ovarian and in the assay with ACHN renal was > 100 µM throughout.
